Reference: patent US6916843B1, “Anti-inflammatory actions of cytochrome P450 expoxygenase-derived eicosanoids” (The United States of America as represented by the …, priority 1999, dated 2005)
Entries after “also recorded” stand apart in the source; their conditions may differ. Peptide text beside a SMILES is read from it. * marks the point of attachment. Cbz = O=C(OCc1ccccc1)*

Columns and labels:
IκB-α = test: Fate of IκB-α after TNF-α stimulation of human endothelial cells; assay type: cell-based; conditions: TNF-α 10 ng/ml, 15 min; EET 100 nM
Text: Co-treatment with [11,12]-EET prevented the nuclear accumulation of RelA. Since the nuclear translocation of RelA requires the degradation of its endogenous cytoplasmic inhibitor, inhibitor kappa B (IκB-α), we followed the fate of IκB-α after TNF-α stimulation in the presence or absence of [11,12]-EET. Stimulation of human endothelial cells with TNF-α caused a rapid and almost complete disappearance of IκB-α which was prevented by co-treatment with [11,12]-EET, but not [14,15]-EET.
A set of gel shift assays was performed. […] In some assays, [11,12]-EET (100 nM) was also added directly to the IKK assay (in vitro). As a control for nonspecific phosphorylation, the assay was performed without the addition of immunoprecipitated IKK (no enzyme) or in the presence of a IκB-α mutant (ΔSer 32, Ser 36→Thr) as substrate. The assay was performed three times with similar results.
Specificity of IKB was determined by the complete absence of phosphorylation when the mutated IκB-α substrate, GST-1κB-α (Δ32,36: S→T) which cannot be phosphorylated at serine residues 32 and 36, was substituted for wild-type GST-IκB-α.

[1] = tested on: mononuclear cell adhesion to carotid artery; test: TNF-α-induced mononuclear cell (U937) adhesion in the murine carotid artery; assay type: in vivo; conditions: mouse, intra-arterial infusion 100 ng/kg/min, TNF-α 10 μg/kg i.p., 5 hours
Protocol: FIG. 3A is a graph showing the expression of VCAM-1 in the murine carotid artery at 5 hours after treatment with intraperitaneal injection of TNF-α (10 μg/kg) alone or in combination with continuous intra-arterial infusion of [11,12]-EET (100 ng/kg/min). FIG. 3B is a bar graph showing the effect of [11,12]-EET on TNF-α induced mononuclear cell adhesion in the murine carotid artery. The mononuclear cells (U937) were perfused through the carotid artery at a wall shear stress of 3 dyn/cm^2. Intra-arterial infusion of vehicle (saline) or [14,15]-EET (100 ng/kg/min) had no effect. […] All experiments except the [14,15]-EET infusion were performed in duplicate.
To determine the functional relevance of EETs in vascular inflammation, we tested [11,12]-EET and its regioisomer [14,15]-EET in a recently developed in vivo model of TNF-α-induced VCAM-1 -mediated mononuclear cell adhesion in the murine carotid artery. […]
Cell rolling and adhesion were recorded on videotape using stroboscopic epifluoresence illumination with an introvital microscope (objective Zeiss 20×, 0.5 numerical aperture). […] In separate experiments, VCAM-1 expression was measured in paraffin-sections (5 μm thick) of carotid arteries harvested from mice treated in the same way. […]

[2] = tested on: bovine aortic endothelial cells (BAECs); test: Hypoxia-reoxygenation-induced cell injury in BAECs (cell number, LDH release, trypan blue); assay type: cell-based; conditions: 1 μmol/L, added 10 min prior to hypoxia (24 h hypoxia, 4 h reoxygenation)
Protocol: Effects of P450-derived arachidonic acid metabolites on hypoxia-reoxygenalion-induced injury in BAECs. BAECs, either untransfected, or 48 hours after transfection with pcDNA3.1/GFP or pcDNA3.1/CYP2J2, or 10 min after treatment with eicosanoids, epoxide hydrolase inhibitors or vehicle, were exposed to hypoxia (95% nitrogen plus 5% carbon dioxide) for 24 hours, followed by reoxygenation (95% air plus 5% carbon dioxide) for 4 hours using an environmental chamber within a 37° C. incubator. Cells maintained under continuous (28 hours) normoxic conditions served as controls.
EETs were prepared by total chemical synthesis as previously described (Corey el al., 102 J. Am. Chem. Soc. 1433-1435 (1980), Falck et al., 23 Tetrahedron Lett. 1755-1756 (1982)). DHETs were prepared by chemical hydration of EETs as described by Capdevila et al., 187 Methods Enzymol. 386-394 (1990). Synthetic EETs and DHETs were purified by reverse-phase HPLC prior to use. BAECs, grown to ˜85% confluency, were treated with either synthetic [11,12]-EET, [11,12]-DHET, or [14,15]-EET in ethanol vehicle (1 μmol/L each, final concentration) for 10 min prior to exposure to hypoxia-reoxygenation. […] Cells treated with vehicle alone served as controls.
After hypoxia-reoxygenation, the cell number was determined using a hemocytometer and the degree of cell injury was assessed by measuring lactate dehydrogenase release into the culture medium using the CytoTox 96 Non-Radioactive Cytotoxicity Assay Kit (Promega, Madison, Wis.) and by counting the number of trypan blue dye stained cells. Data are expressed as a percentage of values obtained from control cells maintained under normoxic conditions.

VCAM-1 expression = test: Cell-surface enzyme immunoassay of cytokine-induced VCAM-1 expression in endothelial cells; assay type: cell-based, human; conditions: human endothelial cells, 1-100 nM, TNF-α
Protocol: FIG. 2 is a set of bar graphs of cell-surface enzyme immunoassays. […] The difference between treatment with TNF-α alone and in the presence of [11,12]-EET were statistically significant (*p<0.05, **p<0.01), OD, optical density. […] After stimulation with TNF-α (10 ng/ml) in the presence or absence of EET, promoter activity was determined relative to basal activity. *p<0.01 vs. TNF-α alone.
To determine the biological effects of EETs, we treated tumor necrosis factor alpha (TNF-α)-stimulated human endothelial cells with physiological relevant concentrations (1-100 nM) of [5,6]-EET, [8,9]-EET, [11,12]-EET, [14,15]-EET, [11,12]-DHET.

[3] = biological target: purified GST-IκB-α fusion protein (wild-type) (UniProt P25963)
purified GST-IκB-α fusion protein (wild-type), sequence (P25963 1-54): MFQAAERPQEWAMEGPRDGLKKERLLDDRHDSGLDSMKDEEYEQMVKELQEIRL

[4] = biological target: mutated IκB-α substrate GST-IκB-α (Δ32,36: S→T) (UniProt P25963)
mutated IκB-α substrate GST-IκB-α (Δ32,36: S→T), sequence (P25963 other isoform, or with tags, fused parts or gaps mutant): as the sequence (P25963 1-54) above, with S32T, S36T counted along it

CC(C)C[C@@H](C=O)NC(=O)[C@H](CC(C)C)NC(=O)[C@H](CC(C)C)NC(=O)OCc1ccccc1 [MG132, reference compound] (Cbz-Leu-Leu-Leu-aldehyde)
effect on TNF-α-induced disappearance/degradation of IκB-α (IκB-α): prevented

CCCCCC1OC1C/C=C\C/C=C\C/C=C\CCCC(=O)O (stereo not drawn) [[14,15]-EET]
mononuclear cell adhesion to the vessel wall [1]: had no effect
hypoxia-reoxygenation-induced cell injury, number of trypan blue stained cells [2]: active in attenuating; also recorded: significantly attenuates
inhibition of TNF-α-induced VCAM-1 expression (rank/words) (VCAM-1 expression): did not inhibit

IκB kinase (IKK) immunoprecipitated from human endothelial cells
IKK activity (phosphorylation of GST-IκB-α substrate) [3]: Stimulation with TNF-α caused an increase in IKK activity
IKK activity (phosphorylation of mutated substrate) [4]: complete absence of phosphorylation when the mutated IκB-α substrate, GST-1κB-α (Δ32,36: S→T) which cannot be phosphorylated at serine residues 32 and 36, was substituted for wild-type GST-IκB-α
